BindingDB's records for doi:10.1021/jm070556y (St. Jude Research Hospital, 2007)

What was measured:
[1] = target: T1, Thyroid hormone receptor beta [209-461] (Homo sapiens, UniProt P10828); assay: Fluorescence Polarization (FP) Competition Assay
T1 construct: 209-461
T1 sequence (P10828 whole entry): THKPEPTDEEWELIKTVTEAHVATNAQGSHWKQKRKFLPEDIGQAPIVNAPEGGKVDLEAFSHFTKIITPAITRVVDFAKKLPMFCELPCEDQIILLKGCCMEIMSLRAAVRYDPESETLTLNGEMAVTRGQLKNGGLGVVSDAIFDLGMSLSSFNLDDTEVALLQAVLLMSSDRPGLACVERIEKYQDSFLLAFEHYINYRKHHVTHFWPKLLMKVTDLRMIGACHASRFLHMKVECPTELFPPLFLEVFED
Procedure: (§1) IC50 is the concentration of each compound required to inhibit 50% of the binding between the TR LBD and the SRC2-2 peptide using fluorescence polarization (FP) assay. The competition binding experiments were evaluated using PrismPad, and the IC50 values were obtained by fitting the data to an equation, Sigmoidal dose-response (variable slope) or four parameter logistic equation.

[2] = target: T2, Thyroid hormone receptor alpha [148-410] (Homo sapiens, UniProt P10827); assay: Fluorescence Polarization (FP) Competition Assay
T2 construct: 148-410
T2 sequence (P10827 whole entry): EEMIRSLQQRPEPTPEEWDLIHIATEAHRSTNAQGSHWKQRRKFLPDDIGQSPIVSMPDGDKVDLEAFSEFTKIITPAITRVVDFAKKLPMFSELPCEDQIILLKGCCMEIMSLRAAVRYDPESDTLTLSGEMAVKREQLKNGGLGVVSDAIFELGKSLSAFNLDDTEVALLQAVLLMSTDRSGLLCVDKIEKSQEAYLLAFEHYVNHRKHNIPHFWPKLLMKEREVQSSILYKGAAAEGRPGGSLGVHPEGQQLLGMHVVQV
Procedure: as §1

Row | Compound | IC50 [1] [µM] | IC50 ([2]; pH 7.2, 22 °C) [µM] | IC50 [2] [µM]
1 | CCCCCCc1ccc(C(=O)CCN2CCCC2)cc1 [1-(4-hexylphenyl)-3-(pyrrolidin-1-yl)propan-1-one] | 2.7 | 4.3 | –
2 | C=CC(=O)OC1CCC(C(C)(C)CC)CC1 (centres undefined) [4-(2-methylbutan-2-yl)cyclohexyl prop-2-enoate] | 69.1 | – | 75.6
3 | C=CC(=O)Oc1ccc(CCCCCCC)cc1 [4-heptylphenyl prop-2-enoate] | 10.5 | – | 23
4 | C=CC(=O)Oc1ccc(CCCCCC)cc1 [4-hexylphenyl prop-2-enoate] | 18.6 | – | 45.2
5 | C=CC(=O)Oc1ccc(CCCCCCCC)cc1 [4-octylphenyl prop-2-enoate] | 11.4 | – | 21.4
6 | C=CC(=O)Oc1ccc(CCC)cc1 [4-propylphenyl prop-2-enoate] | 100 | – | –
7 | C=CC(=O)Oc1ccc2c(c1)CCCC2 [5,6,7,8-tetrahydronaphthalen-2-yl prop-2-enoate] | 69.8 | – | 85.3
8 | C=CC(=O)Oc1ccccc1C(=O)OCCCCCC [hexyl 2-(prop-2-enoyloxy)benzoate] | 8.2 | – | 39.1
9 | C=CC(=O)Oc1ccc(C(=O)OCCCCC)cc1 [pentyl 4-(prop-2-enoyloxy)benzoate] | 55.8 | – | > 100

Other lines, results leading:

Row | IC50 [1] [µM] | IC50 ([2]; pH 7.2, 22 °C) [µM] | IC50 [2] [µM] | Compound
10 | 43.5 | 69.6 | – | C=CC(=O)Oc1ccc(C(C)(C)CC)cc1 [4-(2-methylbutan-2-yl)phenyl prop-2-enoate]
11 | 85.9 | – | > 100 | C=CC(=O)Oc1ccc(NC(=O)CCC)cc1 [4-butanamidophenyl prop-2-enoate]
12 | 66 | 71 | – | C=CC(=O)Oc1ccc(CCCC)cc1 [4-butylphenyl prop-2-enoate]
13 | 33.9 | 60.9 | – | C=CC(=O)Oc1ccc(CCCCC)cc1 [4-pentylphenyl prop-2-enoate]
14 | 17.7 | 19.2 | – | CCCCCCc1ccc(C(=O)/C=C/C(=O)O)cc1 [(2E)-4-(4-hexylphenyl)-4-oxobut-2-enoic acid]
15 | 61 | – | > 100 | C=CC(=O)Oc1ccc(C(=O)OCCC)cc1 [propyl 4-(prop-2-enoyloxy)benzoate]
